The text below walks through data of patent US20240067677A1, “Interference Peptides As Inhibitors Of Interactions Related To Ampar Endocytosis” (priority 2020, published 2024).

Substitutions are numbered along the chain they refer to. “Also recorded” adds a separate entry of the source. Square brackets hold non-standard residues; d marks the D form. Ends that are not written are not given here. pY = N[C@@H](Cc1ccc(OP(=O)(O)O)cc1)C(=O)O

Assay [1] concerns scopolamine (0.7 mg/kg)-treated rats. The assay can be described thus: Radial arm-maze test, scopolamine-induced cognitive impairment. The note with it: for number of working memory errors vs. scopolamine-alone treated rats: peptide 15 μM into dorsal hippocampus; for number of working memory errors vs. scopolamine-alone treated rats / number of reference memory errors vs. scopolamine-alone treated rats: Sco 0.7 mg/kg; for number of reference memory errors vs. scopolamine-alone treated rats: peptide 15 μM.
Experimental: (§1) At the beginning of the experiment, there have been selected 30 adult male rats (Cantacuzino Institute™, Romania) having an average weight of 350 g (±10 g) and four months old. The animals were housed in the animal unit under controlled conditions of light (a 12-h cycle starting at 07:00 h) and temperature (22° C.). Food and water were provided ad libitum throughout the experiment. Rats were randomly divided into 6 groups (n=5 animals/group) as follows: Control group (sham-operated), Scopolamine (Sco) group (sham-operated, Sco: 0,7 mg/kg b.w., i.p., Sigma-Aldrich™, Darmstadt, Germany), and groups treated with TAT-p3Y, TAT-3Y, TAT-p3Ysh3, and TAT-pfin4 (15pIVI, GenScript™) received scopolamine. […] Scopolamine hydrobromide (Sco, 0.7 mg/kg) was administered 30 min before behavioral in vivo approaches.
(§2) All surgical procedures were conducted under aseptic conditions, under sodium pentobarbital (50 mg/kg b.w., i.p., Sigma-Aldrich™, Darmstadt, Germany) anesthesia. Rats were mounted in the stereotaxic apparatus with the nose oriented 11° below horizontal zero plane. Two plastic guide cannulas (Portex™, 0.9 mm outer diameter) were bilaterally implanted stereotaxically in the dorsal hippocampus according to the following coordinates: A/P=3.6 mm, M/L=3.1 mm and D/V=2.4 mm. The cannulas were positioned with dental cement (Adhesor™ SpofaDental™) and secured by three stainless steel screw implanted into the skull. After surgery, the rats were isolated in separate cages and protected with a large spectrum antibiotic. Animals were given two weeks to recover from surgery and were handled daily during this period.
As described before by Olton and Samuelson and Postu et al [63], using a radial arm maze test (RAM), the spatial memory was determined for one week.
The maze comprised eight arms marked from 1 to 8 (48 cm×12 cm), with a radial extension of 32 cm in diameter from the central area, and it had 50 mg food pellets at the end of arms 1, 2, 4, 5, and 7. Four days of habituation sessions were performed. Rats were instructed to move to the end of the arms and to eat the bait during 5 min sessions. After habituation, only one trial per day was granted to all rats. For working and reference memory tasks, each rat was individually placed in the center of the maze.

Assay [2] shares this test system. As to the kind of experiment: Y-maze test, scopolamine-induced cognitive impairment. The note with it: peptide 15 μM; Sco 0.7 mg/kg.
Experimental: as §1, §2
Spontaneous alternation behavior was evaluated in a single-session Y-maze, as previously described by Jackson Postu et al [63]. In the present study, the Y-maze used was built of Plexiglas having the following dimensions: 25 cm high, 35 cm long, 10 cm wide for each arm, and a central area in an equilateral triangular shape. […] The percentage of the involuntary alternation was determined according to the formula:
Assay [3] addresses T1, GST-GluA2-STEP32 C/S complex (Homo sapiens, UniProt P54829, C496S).
T1 construct: made in house; host or cells: STEP32 C/S: E. coli BL21(DE3); GST-GluA2: E. coli BL21
T1 sequence (P54829 282-563 C496S): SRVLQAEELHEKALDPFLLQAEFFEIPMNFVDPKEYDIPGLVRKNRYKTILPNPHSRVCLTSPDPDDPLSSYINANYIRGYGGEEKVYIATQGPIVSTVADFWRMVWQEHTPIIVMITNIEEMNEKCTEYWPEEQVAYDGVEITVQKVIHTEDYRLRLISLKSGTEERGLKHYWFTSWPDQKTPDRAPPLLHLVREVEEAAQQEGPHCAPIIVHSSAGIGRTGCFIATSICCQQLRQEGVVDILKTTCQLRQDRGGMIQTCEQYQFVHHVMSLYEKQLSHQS
The assay can be described thus: GST-GluA2-STEP32 pulldown (SDS-PAGE / western blot). It counts as binding. How it is done: Prior to binding and after contacting the beads with phosphorylated GST-GluA2, the beads were washed thoroughly with interaction buffer (25 mM HEPES, 150 mM NaCl, 1 mM MgCl2, 1% Triton™ X-100, 1 mM DTT, pH=7,5). Triton™ X-100 was used to avoid nonspecific binding and to minimize the risk of precipitation for any of the proteins. […] Beads were washed twice with wash buffer to remove excess STEP32 C/S. Results were analyzed using SDS-PAGE (FIG. 2A).
(In western blotting, separated proteins are transferred to a membrane and probed.)

In assay [4] the test system is scopolamine (0.7 mg/kg)-treated rats. As to the kind of experiment: Forced swimming test.
Experimental: At the beginning of the experiment, there have been selected 30 adult male rats (Cantacuzino Institute™, Romania) having an average weight of 350 g (±10 g) and four months old. The animals were housed in the animal unit under controlled conditions of light (a 12-h cycle starting at 07:00 h) and temperature (22° C.). Food and water were provided ad libitum throughout the experiment. Rats were randomly divided into 6 groups (n=5 animals/group) as follows: Control group (sham-operated), Scopolamine (Sco) group (sham-operated, Sco: 0,7 mg/kg b.w., i.p., Sigma-Aldrich™, Darmstadt, Germany), and groups treated with TAT-p3Y, TAT-3Y, TAT-p3Ysh3, and TAT-pfin4 (15pIVI, GenScript™) received scopolamine. The doses of the peptides were chosen according to a previous report [60]. Scopolamine hydrobromide (Sco, 0.7 mg/kg) was administered 30 min before behavioral in vivo approaches. […]
The forced swimming test (F.S.T.) is used for assessing depressive-like responses [66]. The depressive-like response was assessed, basically using the same method described by Campos
et al. [67], but with modifications. […] During the test session, the following behavioral responses were recorded: (i) immobility (time spent floating with the minimal movements to keep the head above the water); and (ii) swimming (time spent with active swimming movements). • Statistical Analyses
The next assay deals with T2, BRAG2-GluA2 complex (Homo sapiens, UniProt Q6DN90, E620K).
T2 construct: GST-GluA2: E. coli BL21
The assay can be described thus: BRAG2-GluA2 pulldown with GSH Sepharose-coupled GST-GluA2 (SDS-PAGE). Type of assay: binding. How it is done: A. SDS-PAGE gel of the species pulled down with GSH Sepharose-coupled GST-GluA2. On the first lane, only BRAG2 was present in the solution containing the beads. On lanes 2-4 the BRAG2 solution also contained 1 mM of different peptides. B. BRAG2 band intensities from A. normalized to the GS T-GluA2 band intensities.
Samples containing GST-GluA2 (150 μg) and BRAG2 (60 μg) were bound to Sepharose glutathione beads (20 μl). Prior to binding, the beads were washed thoroughly with interaction buffer (25 mM HEPES, 150 mM NaCl, 1 mM MgCl2, 1% Triton™ X-100, 1 mM DTT, pH=7.5). Triton™ X-100 was used to avoid nonspecific binding and to minimize the risk of protein precipitation. In a subsequent step, 3Y at different concentrations was added to the samples (1000 μM, 100 μM, 10 μM, 1 μM, 0.1 μM). A 2.5 mM solution (0.1 M PBS pH=7.4) was obtained. After incubating the samples for 90 minutes at 4 ° C. with stirring, the beads were washed with a buffer containing less Triton X-100 (25 mM HEPES, 150 mM NaCl, 1 mM MgCl2, 0.1% Triton™ X-100.1 mM DTT, pH=7.5). The species which remained trapped by the beads were analyzed by SDS-PAGE (FIG. 16).

In assay [5] the test system is scopolamine (0.7 mg/kg)-treated rats. The assay can be described thus: Elevated plus-maze test. Conditions: for number of entries in the open arms vs. Sco-alone treated rats / percentage of the open arms time vs. scopolamine-alone treated rats: peptide 15 μM, Sco 0.7 mg/kg.
Experimental: At the beginning of the experiment, there have been selected 30 adult male rats (Cantacuzino Institute™, Romania) having an average weight of 350 g (±10 g) and four months old. The animals were housed in the animal unit under controlled conditions of light (a 12-h cycle starting at 07:00 h) and temperature (22° C.). Food and water were provided ad libitum throughout the experiment. […] Scopolamine hydrobromide (Sco, 0.7 mg/kg) was administered 30 min before behavioral in vivo approaches.
as §2
Behavior in the elevated plus-maze test (E.P.M.) is utilized to assess exploration, anxiety and motor behavior. Each rat was placed in the center of the maze facing one closed arm. […] The percentages of time spent in the open arms were calculated using the formula:
(time spent in the open arms/time spent in all arms)×100. • Forced Swimming Test
Another assay addresses T3, STEP32 WT (Homo sapiens, UniProt P54829).
T3 sequence (P54829 282-563): T1 sequence (P54829 282-563 C496S) with S215C
The assay can be described thus: In vitro dephosphorylation of pY876 of full length GluA2 by STEP32 WT (western blot).

T2 sequence (Q6DN90 with tags, fused parts or gaps E620K): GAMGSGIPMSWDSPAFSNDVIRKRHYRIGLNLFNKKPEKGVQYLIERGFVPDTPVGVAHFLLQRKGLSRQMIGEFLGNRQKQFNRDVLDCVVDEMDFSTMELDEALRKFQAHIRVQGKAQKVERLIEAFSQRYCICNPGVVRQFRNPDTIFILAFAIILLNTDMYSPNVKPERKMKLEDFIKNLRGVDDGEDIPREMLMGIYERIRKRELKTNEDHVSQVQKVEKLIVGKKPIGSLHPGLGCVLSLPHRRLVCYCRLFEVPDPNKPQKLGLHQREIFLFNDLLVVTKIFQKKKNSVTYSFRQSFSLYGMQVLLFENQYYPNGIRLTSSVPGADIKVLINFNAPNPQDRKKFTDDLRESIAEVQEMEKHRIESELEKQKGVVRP
Text for STEP32 WT: GluA2-FL phosphorylated at Y876 site was immunoprecipitated from HEK293T cells overexpressing GluA2 and vSrc using anti-GluA2 antibodies and then submitted to in vitro dephosphorylation by purified STEP32 WT, in presence versus absence of TAT-phosphopeptides: TAT-p3Y, TAT-p3Y-sh3 and TAT-p-fin4. The dephosphorylation of the pY876 site of GluA2 FL was detected by western blotting using anti-pY876 antibodies and anti-GluA2 antibodies.
The results represent mean±SEM of three independent experiments.
Therefore, HEK293 cells were transfected with a pCMV-SPORT6-GRIA2 mammalian expression vector containing the cDNA of full length GluA2 (GluA2-FL). […] A sample consisting of immunoprecipitated GluA2 FL untreated with either STEP32 or peptides was also included into the study, as a control.

On to “(TAT-)p3Y: p3Y N-terminally fused to the TAT cell-penetrating sequence GRKKRRQRRRPQ [reference compound]”, for which the “p, Sco vs. peptide, number of reference memory errors” value in assay [1] (15 μM, Tukey's post hoc, n=5, FIG. 10) was less than 0.01. In assay [1], the “number of working memory errors vs. scopolamine-alone treated rats” value is given as “significant reduction in the number of working memory errors”. Also, the “spontaneous alternation percentage / working memory vs. scopolamine alone” value in assay [2] is recorded as “successfully countered the effect of scopolamine on working-memory”. In assay [3], the “inhibition of formation of the GST-GluA2-STEP32 C/S complex” value is on record as “significantly inhibit the interaction”. For the same substance, the “p, Sco vs. peptide, immobility time” value in assay [4] (15 μM, Tukey's post hoc, n=5, FIG. 12) was less than 0.0001. In assay [4] (peptide 15 μM, Sco 0.7 mg/kg), the “immobility time” value is “significant decline of the immobility time”.
On to “EGYNVY (Interference peptide capable of inhibiting the formation/disrupting the STEP-GluA2 complex or the GluA2-BRAG2 complex) [3Y-sh3, (uncoupled) novel 3Y-sh3 peptide, non-phosphorylated hexapeptide]”, for which the “effect on the GST-GluA2-BRAG2 complex” value with BRAG2-GluA2 complex (1 mM peptide (FIG. 17)) is on record as “significant disrupting effect”.
In the case of “(TAT-)p-fin 4: p-fin4 (EGYNVpYE) N-terminally fused to the TAT cell-penetrating sequence (GRKKRRQRRRPQEGYNV[pY]E)”, in assay [1], the “number of working memory errors vs. scopolamine-alone treated rats” value is given as “significant reduction in the number of working memory errors” and the “number of reference memory errors vs. scopolamine-alone treated rats” value is listed as “significant reduction in the number of reference memory errors”. Also, in assay [5], the “number of entries in the open arms vs. Sco-alone treated rats” value is recorded as “high number of entries in the open arms” and the “percentage of the open arms time vs. scopolamine-alone treated rats” value is “high percentage of the open arms time”. For the same substance, the “spontaneous alternation percentage / working memory vs. scopolamine alone” value in assay [2] was “successfully countered the effect of scopolamine on working-memory”. Further, in assay [3], the “inhibition of formation of the GST-GluA2-STEP32 C/S complex” value is reported as “strongest inhibitory effect; also recorded: significantly inhibit the interaction”. In addition, the “inhibition of pY876 GluA2-FL dephosphorylation by STEP32 WT” value with STEP32 WT (0.1 mM and 1 mM peptide) is recorded as “highest inhibition of GluA2 dephosphorylation”. Also, the “P, no peptide sample vs. peptide + STEP32 WT sample, pY876 band intensity” value with STEP32 WT (1 mM peptide, unpaired t-test with Welch's correction) was less than 0.05.
In the case of “(TAT-)p3Y-sh3: p3Ysh-3 (EGYNVpY) N-terminally fused to the TAT cell-penetrating sequence (GRKKRRQRRRPQEGYNV[pY])”, in assay [1], the “number of working memory errors vs. scopolamine-alone treated rats” value is recorded as “significant reduction in the number of working memory errors” and the “number of reference memory errors vs. scopolamine-alone treated rats” value is “significant reduction in the number of reference memory errors”. In assay [5], the “number of entries in the open arms vs. Sco-alone treated rats” value is listed as “high number of entries in the open arms” and the “percentage of the open arms time vs. scopolamine-alone treated rats” value is “high percentage of the open arms time”. In addition, in assay [2], the “spontaneous alternation percentage / working memory vs. scopolamine alone” value is reported as “successfully countered the effect of scopolamine on working-memory”. Moreover, the “inhibition of formation of the GST-GluA2-STEP32 C/S complex” value in assay [3] is reported as “significantly inhibit the interaction”.
As to “ATYKEGYNVYG (not fully specified (residue 10)) [3Y, reference compound]”, the “p, Sco vs. peptide, open arms time %” value in assay [5] (15 μM, Tukey's post hoc, n=5, FIG. 13) was less than 0.001. The “disruption of the BRAG2-GluA2 complex” value in the assay with BRAG2-GluA2 complex (3Y in the range of concentrations 10 μM-1 mM) is “successfully disrupts the BRAG2-GluA2 complex”.
